Test results taken from patent publication US8460925B2, “Methods for culturing mammalian taste cells” (priority 2004, dated 2013).

Assays:
cultured taste cells = experiment: Response of cultured taste cells to taste stimuli by Ca-imaging (fura-2); assay type: cell-based, rat; conditions: elevation of intracellular calcium
Experimental: Taste cells employed are isolated as described in Example 1 and cultured for 1 week or 2 months on rat tail collagen type 1-coated coverslips.
(§1) Ca-imaging is performed as follows. The coverslips are incubated for 15-30 minutes with calcium sensitive dye in Modified MHNK ringer's solution (80 mM NaCl, 5 mM KCl, 1 mM MgCl2, 1 mM CaCl2, 1 mM Na-pyruvate, and 20 mM Hepes-Na, pH 7.2 with osmolarity adjusted to 300-310 by 5M NaCl) supplemented with […] (Molecular Probes Inc., Eugene, Oreg.) and 20 mg/ml PLURONIC® F127 (Molecular Probes Inc.). The calcium sensitive dye fura-2 AM is cleaved to fura-2 which is fluorescent and can be detected.
After incubation, coverslips are placed in a recording chamber and continuously bathed with Modified MHNK Ringer's solution that is applied as superfusion.
The stimuli (Denatonium benzoate 2 mM and 0.5 mM, Acesulfame K 250 ppm, Monosodium glutamate (MSG) 3 mM, Cycloheximide 25 μM, Glycine 125 mM, and High K buffer (modified Modified MHNK ringer's solution with 5 mM NaCl, 80 mM KCl, 1 mM MgCl2, 1 mM CaCl2, 1 mM Na-pyruvate, and 20 mM Hepes-Na, pH 7.2 with osmolarity adjusted to 300-310 by 5M NaCl) are applied to the coverslip by switching the superfusion to the stimulus solution, which allows for a complete change of bath solutions in the chamber within 10 seconds.
Calcium imaging recordings are performed using standard imaging techniques as described by Restrepo D., M. Zviman and N. E. Rawson, “The measurement of intracellular calcium in chemosensory cells”, in: Methods in Chemosensory Research, Ed. by A. Spielman and J. Brand. CRC Press, 1995. […] Emitted light from fura-2 in the cells under 200× magnification is filtered at 510 nm and recorded with a cooled CCD camera (Olympix, Perkin Elmer Life Sciences, Bethesda Md.). The excitation wavelength is 340-380 nm and the emission wavelength is 510 nm using a wide band filter. Images are digitalized using a Merlin Imaging Workstation (Perkin Elmer Life Sciences, Bethesda Md.), which controls illuminator, camera, and acquisition, and performs the image ratioing and the display of pseudocolor images.
Stimuli are diluted in Modified MHNK ringer's solution and applied via a gravity-flow superfusion apparatus for about 10-60 seconds, depending on the stimulus. […] Typically several cells are tested.

human T2R16 = target: T1, human T2R16 (Homo sapiens, UniProt Q9NYV7); experiment: Calcium imaging of cultured taste cells transfected with hT2R16; assay type: cell-based
T1 construct: expressed in transfected cells; host or cells: primary cultured rat taste cells on rat tail collagen-1-coated coverslips
T1 sequence (Q9NYV7 1-291): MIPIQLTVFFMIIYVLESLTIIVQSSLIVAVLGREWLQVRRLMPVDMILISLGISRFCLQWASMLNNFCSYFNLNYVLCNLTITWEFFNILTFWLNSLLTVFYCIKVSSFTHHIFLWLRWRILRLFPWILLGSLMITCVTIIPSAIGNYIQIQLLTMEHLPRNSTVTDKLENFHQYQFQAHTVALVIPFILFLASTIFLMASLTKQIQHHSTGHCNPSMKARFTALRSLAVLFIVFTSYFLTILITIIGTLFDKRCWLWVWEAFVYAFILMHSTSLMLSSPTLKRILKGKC
Experimental: as §1
(§2) Calcium imaging recordings are performed using standard imaging techniques as described by Restrepo D., M. Zviman and N. E. Rawson, “The measurement of intracellular calcium in chemosensory cells”, in: Methods in Chemosensory Research, Ed. by A. Spielman and J. Brand. CRC Press, 1995. Illumination is provided by a LSR SPECTRAMASTER monochromator coupled to the microscope. Emitted light from fura-2 in the cells under 200× magnification is filtered at 510 nm and recorded with a cooled CCD camera (Olympix, Perkin Elmer Life Sciences, Bethesda Md.). The excitation wavelength is 340-380 nm and the emission wavelength is 510 nm using a wide band filter. Images are digitalized using a Merlin Imaging Workstation (Perkin Elmer Life Sciences, Bethesda Md.), which controls illuminator, camera, and acquisition, and performs the image ratioing and the display of pseudocolor images. […]

mouse T2R5 = target: T2, mouse T2R5 (Mus musculus, UniProt Q9JKT4); experiment: Calcium imaging of cultured taste cells transfected with mT2R5; assay type: cell-based
T2 construct: sst (N-terminal export tag; by own knowledge of Bufe et al. 2002, the first 45 residues of rat somatostatin receptor type 3) (N); expressed in transfected cells; host or cells: primary cultured rat taste cells on rat tail collagen-1-coated coverslips
T2 sequence (Q9JKT4 1-300): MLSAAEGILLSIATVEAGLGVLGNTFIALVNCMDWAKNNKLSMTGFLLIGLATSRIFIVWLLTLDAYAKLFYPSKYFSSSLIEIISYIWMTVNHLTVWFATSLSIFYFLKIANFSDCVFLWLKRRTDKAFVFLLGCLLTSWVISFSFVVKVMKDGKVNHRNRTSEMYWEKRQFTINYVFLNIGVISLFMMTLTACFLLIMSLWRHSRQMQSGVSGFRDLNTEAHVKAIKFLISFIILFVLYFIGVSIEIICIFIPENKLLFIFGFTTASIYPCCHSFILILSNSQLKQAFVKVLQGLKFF
Experimental: as §1, §2

## NCC(=O)O [Glycine]
Cultured taste cells
  activation of cultured taste cells by taste stimulants as shown by calcium imaging: activated

## CC[N+](CC)(CC(=O)Nc1c(C)cccc1C)Cc1ccccc1 [Denatonium, Denatonium benzoate]
Cultured taste cells
  activation of cultured taste cells by taste stimulants as shown by calcium imaging: activated

## CC1=CC(=O)NS(=O)(=O)O1.[K] [Acesulfame K, 6-Methyl-1,2,3-oxathiazin-4(3H)-one 2,2-dioxide potassium salt]
Cultured taste cells
  activation of cultured taste cells by taste stimulants as shown by calcium imaging: activated

## N[C@@H](CCC(=O)O)C(=O)[O-].[Na+] [MSG, Monosodium glutamate]
Cultured taste cells
  activation of cultured taste cells by taste stimulants as shown by calcium imaging: activated

## OC[C@H]1O[C@@H](Oc2ccccc2)[C@H](O)[C@@H](O)[C@@H]1O [phenyl-beta-D-glucopyranoside]
Human T2R16
  effective concentration for increase in intracellular calcium: 1 milliM

## CC1CC(C)C(=O)C(C(O)CC2CC(=O)NC(=O)C2)C1 (stereo not shown) [Cycloheximide, 3-[2-(3,5-Dimethyl-2-oxocyclohexyl)-2-hydroxyethyl]glutarimide]
Mouse T2R5
  effective concentration for increase in intracellular calcium: 1 µM
Cultured taste cells
  activation of cultured taste cells by taste stimulants as shown by calcium imaging: activated
